How the values were obtained:
[1] = Half life in Sprague-Dawley rat at 4 mg/kg, iv measured upto 72 hrs by (LC-MS)/MS analysis; assay type: ADME, organism-based; conditions: in vivo
[2] = MRT (0 to infinity) in Sprague-Dawley rat at 20 mg/kg, po measured upto 72 hrs by (LC-MS)/MS analysis; assay type: ADME, organism-based; conditions: in vivo
[3] = Tmax in Sprague-Dawley rat at 4 mg/kg, iv measured upto 72 hrs by (LC-MS)/MS analysis; assay type: ADME, organism-based; conditions: in vivo
[4] = AUC (0 to infinity) in Sprague-Dawley rat at 20 mg/kg, po measured upto 72 hrs by (LC-MS)/MS analysis; assay type: ADME, organism-based; conditions: in vivo
[5] = In vivo antitumor activity against […] GL261 cells xenografted in C57BL/6 mouse assessed as decrease in PD-L1 expression in tumor tissue at 100 mg/kg, IG treated for 21 days relative to control; assay type: functional; parameters: scale not given: the % may be the effect or the level left; conditions: time 21 day
[6] = Toxicity in C57BL/6 mouse xenografted with […] GL261 cells assessed as body weight loss at 50 to 100 mg/kg, IG treated for 21 days; assay type: organism-based; conditions: in vivo, po, 504 h, dose 50-100 mg/kg, time 21 day
Glioblastoma cell line = test: Antitumor immunity against glioblastoma bearing C57BL/6 mouse model assessed as tumor infiltrating lymphocytes by measuring increase in CD3+CD4+T cells at 100 mg/kg, IG (reference value: 0.91%); assay type: functional
[7] = Cmax in Sprague-Dawley rat at 20 mg/kg, po measured upto 72 hrs by (LC-MS)/MS analysis; assay type: ADME, organism-based; conditions: in vivo
U-87 MG [8] = test: cells; conditions: Homo sapiens, 72 h
Description: Antiproliferative activity against human U-87 MG cells incubated for 72 hrs by MTT assay

U-87 MG [9] = test: Induction of cell cycle arrest in human U-87 MG cells assessed as decrease in accumulation of cells at S phase at 2 uM incubated for 48 hrs by flow cytometry (reference value: 30.36%); assay type: functional, U-87MG ATCC; parameters: scale not given: the % may be the effect or the level left
[10] = Volume of distribution in Sprague-Dawley rat at 20 mg/kg, po measured upto 72 hrs by (LC-MS)/MS analysis; assay type: ADME, organism-based; conditions: in vivo
U-251 = test: cells; conditions: Homo sapiens, U-251, 72 h
Description: Antiproliferative activity against human U-251 cells incubated for 72 hrs by MTT assay

[11] = Toxicity in C57BL/6 mouse xenografted with […] GL261 cells assessed as cell necrosis in kidney at 100 mg/kg, IG treated for 21 days by hematoxylin-eosin staining based microscopy assay; assay type: organism-based; conditions: in vivo, po, 504 h, time 21 day
[12] = Toxicity in C57BL/6 mouse xenografted with […] GL261 cells assessed as cell necrosis in lung at 100 mg/kg, IG treated for 21 days by hematoxylin-eosin staining based microscopy assay; assay type: organism-based; conditions: in vivo, po, 504 h, time 21 day
U-87 MG [13] = test: Induction of cell cycle arrest in human U-87 MG cells assessed as accumulation of cells at G0/G1 phase at 2 uM incubated for 48 hrs by flow cytometry (reference value: 60.51%); assay type: functional, U-87MG ATCC
U-87 MG [14] = test: Induction of cell cycle arrest in human U-87 MG cells assessed as decrease in accumulation of cells at S phase at 1 uM incubated for 48 hrs by flow cytometry (reference value: 30.36%); assay type: functional, U-87MG ATCC; parameters: scale not given: the % may be the effect or the level left

half-life [1]: 408 min | MRT inf [2]: 17.2 h | Tmax [3]: 2.4 min | AUC(0-inf) [4]: 3240 ng·h/mL | Cmax [7]: 255 ng/mL | IC50 (U-87 MG [8]): 770 nM | Vd [10]: 123.5 L/kg | IC50 (U-251): 1020 nM
SMILES: COc1cc2ncnc(Nc3cccc(Cl)c3F)c2cc1OCCCCNCc1c(OC)cc(OCc2cccc(-c3ccccc3)c2C)cc1OC
Activity [5]: ~30% | Activity [6]: Non-Toxic | Activity (Glioblastoma cell line): 3.74% | Activity (U-87 MG [9]): 16.72% | Activity [11]: Non-Toxic | Activity [12]: Non-Toxic | Activity (U-87 MG [13]): 73.98% | Activity (U-87 MG [14]): 22.89%
